From US4146631A, “Benzamide derivatives” (May & Baker Limited, priority 1976, dated 1979)

tested on: not listed separately; assay: Acute oral toxicity in mice; settings: mouse, in vivo, highest dose used 1000 mg/kg, read-out: LD50 (doses lethal to 50% of mice tested)
Text: Mice were each treated orally with one of the compounds of formula I, and they were observed daily until there had been at least 3 consecutive days without any deaths. The LD50 figures obtained (doses lethal to 50% of mice tested) are shown below in Table IV, expressed in mg/kg animal body weight.
The symbol ">" means "greater than" in this specification. Where the LD50 is said to be ">1000," a more precise estimation of the LD50 was not possible because the numbers of deaths was too small, even at the highest dose used, 1000 mg/kg.

Compound	LD50
CCC(C)c1cc(C(C)=O)c(O)c(C(=O)Nc2nnn[nH]2)c1 (centres unmarked) [Compound BY, 3-acetyl-5-sec-butyl-2-hydroxy-N-(tetrazol-5-yl)benzamide]	> 1000 mg/kg
Cc1cc(C(=O)Nc2nnn[nH]2)c(O)c(S(=O)(=O)NC(C)(C)C)c1 [BT, 3-(N-tert-butylsulphamoyl)-2-hydroxy-5-methyl-N-(tetrazol-5-yl)benzamide]	> 1000 mg/kg
O=C(Nc1nnn[nH]1)c1ccc(Cl)cc1O [AX, 4-chloro-2-hydroxy-N-(tetrazol-5-yl)benzamide]	> 1000 mg/kg
CCCCN(CCCC)S(=O)(=O)c1ccc(O)c(C(=O)Nc2nnn[nH]2)c1 [AQ, 5-(N,N-dibutylsulphamoyl)-2-hydroxy-N-(tetrazol-5-yl)benzamide]	> 1000 mg/kg

tested on: not listed separately; assay: Acute intravenous toxicity in mice; settings: mouse, in vivo, sodium salt (Na), 2% w/v test solution
Text: Mice were each treated intravenously with an aqueous solution of the triethanolamine salt or sodium salt of one of the compounds of formula I, and they were observed until there had been at least 3 consecutive days without any deaths. The LD50 figures obtained (doses lethal to 50% of mice tested) are shown below in Table V, expressed in mg/kg animal body weight. In Table V, "Na" means that the sodium salt was used and "T" means that the triethanolamine salt was used.
The aqueous solutions were prepared as follows:
A mixture of the test compound and water was treated gradually with triethanolamine until complete solution occurred. The solution was then diluted with water to a concentration of test compound of either 1% w/v or 2% w/v.
The test compound was dissolved in aqueous sodium hydroxide (1N) and the solution was brought to pH 8 by treatment with hydrochloric acid. The solution was then diluted with water to a concentration of test compound of 2% w/v.
Various volumes of these solutions were then administered to the mice.

Compound	LD50
Cc1cc(C(=O)Nc2nnn[nH]2)c(O)c(S(=O)(=O)NC(C)(C)C)c1 [BT, 3-(N-tert-butylsulphamoyl)-2-hydroxy-5-methyl-N-(tetrazol-5-yl)benzamide]	500 mg/kg
CCCCN(CCCC)S(=O)(=O)c1ccc(O)c(C(=O)Nc2nnn[nH]2)c1 [AQ, 5-(N,N-dibutylsulphamoyl)-2-hydroxy-N-(tetrazol-5-yl)benzamide]	280 mg/kg

same assay, conditions: mouse, in vivo, triethanolamine salt (T), 2% w/v test solution

Compound	LD50
CCC(C)c1cc(C(C)=O)c(O)c(C(=O)Nc2nnn[nH]2)c1 (centres unmarked) [Compound BY, 3-acetyl-5-sec-butyl-2-hydroxy-N-(tetrazol-5-yl)benzamide]	180 mg/kg
O=C(Nc1nnn[nH]1)c1ccc(Cl)cc1O [AX, 4-chloro-2-hydroxy-N-(tetrazol-5-yl)benzamide]	260 mg/kg
CSc1cccc(C(=O)Nc2nnn[nH]2)c1O [BI, 2-hydroxy-3-methylthio-N-(tetrazol-5-yl)benzamide]	580 mg/kg

tested on: passive cutaneous anaphylactic (PCA) reaction; assay: Passive cutaneous anaphylactic (PCA) reaction, reagin-allergen combination, in rats; type: in vivo; settings: Rattus norvegicus, intravenous, just before injection of allergen, read-out: ED100 (intravenous dose which produces 100% inhibition of the PCA reaction)
Text: In pharmacological tests the benzamide derivatives of general formula I suppress the passive cutaneous anaphylactic (PCA) reaction resulting from combination of tissue-fixed reaginic antibodies with the appropriate antigenic material (termed reagin-allergen combination) and carried out in an essentially similar manner to that described by Ogilvie [Nature (Lond.), (1964), 204, 91-92; Immunology, (1967), 12, 112-131]. In the method used to test these compounds sera were obtained from rats which had been infected with larvae of the nematode parasite Nippostrongylus brasiliensis; as a result of the parasitic infestation reaginic antibodies are elaborated in the host mammal and are found in sera removed from such animals. Other, non-infected, rats received intradermal injections of appropriate dilutions of such sera and were then given the allergenic material along with Evans' blue dye intravenously forty-eight hours later.
The allergenic material consisted of supernatant fluid after centrifugation of homogenates of adult Nippostrongylus brasiliensis worms which had been macerated in Tyrode's solution. The sites of PCA reactions were visualised by the effusion of Evan's blue dye from the circulation into those areas as a result of increased capillary permeability caused by the release of biologically-active substances from cells where reagin-allergen combination had occurred. The new compounds when given intravenously to the rats just before injection of allergen, or administered orally thirty minutes before intravenous injection of allergen, were able to prevent the development of the PCA reaction, as shown below in Table I, Table II and Table III.

Compound	ED100
CCC(C)c1cc(C(C)=O)c(O)c(C(=O)Nc2nnn[nH]2)c1 (centres unmarked) [Compound BY, 3-acetyl-5-sec-butyl-2-hydroxy-N-(tetrazol-5-yl)benzamide]	0.5 mg/kg
O=C(Nc1nnn[nH]1)c1ccc([N+](=O)[O-])cc1O [Compound AA, 2-hydroxy-4-nitro-N-(tetrazol-5-yl)benzamide]	10 mg/kg
CC(C)N(C)S(=O)(=O)c1ccc(O)c(C(=O)Nc2nnn[nH]2)c1 [AC, 2-hydroxy-5-(N-methyl-N-isopropylsulphamoyl)-N-(tetrazol-5-yl)benzamide]	5 mg/kg
O=C(Nc1nnn[nH]1)c1cccc(Cl)c1O [AM, 3-chloro-2-hydroxy-N-(tetrazol-5-yl)benzamide]	5 mg/kg
CSc1ccc(C(=O)Nc2nnn[nH]2)c(O)c1 [BN, 2-hydroxy-4-methylthio-N-(tetrazol-5-yl)benzamide]	10 mg/kg
Nc1ccc(O)c(C(=O)Nc2nnn[nH]2)c1 [Compound BS, 5-amino-2-hydroxy-N-(tetrazol-5-yl)benzamide]	5 mg/kg
COc1ccc(C(=O)Nc2nnn[nH]2)c(O)c1 [AT, 2-hydroxy-4-methoxy-N-(tetrazol-5-yl)benzamide]	5 mg/kg
CN(C)c1cccc(C(=O)Nc2nnn[nH]2)c1O [CP, 2-hydroxy-3-dimethylamino-N-(tetrazol-5-yl)benzamide]	2 mg/kg
CSc1ccc(O)c(C(=O)Nc2nnn[nH]2)c1 [BF, 2-hydroxy-5-methylthio-N-(tetrazol-5-yl)benzamide]	0.5 mg/kg
CC(=O)c1cc(F)cc(C(=O)Nc2nnn[nH]2)c1O [CC, 3-acetyl-5-fluoro-2-hydroxy-N-(tetrazol-5-yl)benzamide]	0.2 mg/kg
Cc1cc(C#N)c(O)c(C(=O)Nc2nnn[nH]2)c1 [Compound CL, 3-cyano-2-hydroxy-5-methyl-N-(tetrazol-5-yl)benzamide]	2 mg/kg
O=C(Nc1nnn[nH]1)c1cc(C(F)(F)F)ccc1O [Compound BV, 5-trifluoromethyl-2-hydroxy-N-(tetrazol-5-yl)benzamide]	2 mg/kg
CC(=O)c1cc(S(N)(=O)=O)cc(C(=O)Nc2nnn[nH]2)c1O [Compound BU, 3-acetyl-2-hydroxy-5-sulphamoyl-N-(tetrazol-5-yl)benzamide]	0.5 mg/kg
CC(C)(C)NC(=O)c1cccc(C(=O)Nc2nnn[nH]2)c1O [CO, 3-tert-butylcarbamoyl-2-hydroxy-N-(tetrazol-5-yl)benzamide]	5 mg/kg
CS(=O)(=O)c1cc(C(=O)Nc2nnn[nH]2)c(O)c(S(C)(=O)=O)c1 [BK, 2-hydroxy-3,5-bis(methylsulphonyl)-N-(tetrazol-5-yl)benzamide]	10 mg/kg
CSc1cccc(C(=O)Nc2nnn[nH]2)c1O [BI, 2-hydroxy-3-methylthio-N-(tetrazol-5-yl)benzamide]	20 mg/kg

same assay, conditions: Rattus norvegicus, oral dose of 100 mg/kg, thirty minutes before intravenous allergen

Compound	inhibition in vivo at 100 mg/kg
CCC(C)c1cc(C(C)=O)c(O)c(C(=O)Nc2nnn[nH]2)c1 (centres unmarked) [Compound BY, 3-acetyl-5-sec-butyl-2-hydroxy-N-(tetrazol-5-yl)benzamide]	43%
O=C(Nc1nnn[nH]1)c1ccc([N+](=O)[O-])cc1O [Compound AA, 2-hydroxy-4-nitro-N-(tetrazol-5-yl)benzamide]	18%
CC(C)N(C)S(=O)(=O)c1ccc(O)c(C(=O)Nc2nnn[nH]2)c1 [AC, 2-hydroxy-5-(N-methyl-N-isopropylsulphamoyl)-N-(tetrazol-5-yl)benzamide]	20%
O=C(Nc1nnn[nH]1)c1cccc(Cl)c1O [AM, 3-chloro-2-hydroxy-N-(tetrazol-5-yl)benzamide]	82%
CSc1ccc(C(=O)Nc2nnn[nH]2)c(O)c1 [BN, 2-hydroxy-4-methylthio-N-(tetrazol-5-yl)benzamide]	8%
Nc1ccc(O)c(C(=O)Nc2nnn[nH]2)c1 [Compound BS, 5-amino-2-hydroxy-N-(tetrazol-5-yl)benzamide]	35%
COc1ccc(C(=O)Nc2nnn[nH]2)c(O)c1 [AT, 2-hydroxy-4-methoxy-N-(tetrazol-5-yl)benzamide]	8%
CN(C)c1cccc(C(=O)Nc2nnn[nH]2)c1O [CP, 2-hydroxy-3-dimethylamino-N-(tetrazol-5-yl)benzamide]	68%
CC(=O)c1cc(F)cc(C(=O)Nc2nnn[nH]2)c1O [CC, 3-acetyl-5-fluoro-2-hydroxy-N-(tetrazol-5-yl)benzamide]	62%
Cc1cc(C#N)c(O)c(C(=O)Nc2nnn[nH]2)c1 [Compound CL, 3-cyano-2-hydroxy-5-methyl-N-(tetrazol-5-yl)benzamide]	26%
O=C(Nc1nnn[nH]1)c1cc(C(F)(F)F)ccc1O [Compound BV, 5-trifluoromethyl-2-hydroxy-N-(tetrazol-5-yl)benzamide]	90%
CC(=O)c1cc(S(N)(=O)=O)cc(C(=O)Nc2nnn[nH]2)c1O [Compound BU, 3-acetyl-2-hydroxy-5-sulphamoyl-N-(tetrazol-5-yl)benzamide]	86%
CC(C)(C)NC(=O)c1cccc(C(=O)Nc2nnn[nH]2)c1O [CO, 3-tert-butylcarbamoyl-2-hydroxy-N-(tetrazol-5-yl)benzamide]	26%
CS(=O)(=O)c1cc(C(=O)Nc2nnn[nH]2)c(O)c(S(C)(=O)=O)c1 [BK, 2-hydroxy-3,5-bis(methylsulphonyl)-N-(tetrazol-5-yl)benzamide]	29%

same assay, conditions: Rattus norvegicus, oral, thirty minutes before intravenous allergen, read-out: ED50 (oral dose which produces 50% inhibition of the PCA reaction)

Compound	ED50
CCC(C)c1cc(C(C)=O)c(O)c(C(=O)Nc2nnn[nH]2)c1 (centres unmarked) [Compound BY, 3-acetyl-5-sec-butyl-2-hydroxy-N-(tetrazol-5-yl)benzamide]	1.8 mg/kg
O=C(Nc1nnn[nH]1)c1cccc(Cl)c1O [AM, 3-chloro-2-hydroxy-N-(tetrazol-5-yl)benzamide]	85 mg/kg
CN(C)c1cccc(C(=O)Nc2nnn[nH]2)c1O [CP, 2-hydroxy-3-dimethylamino-N-(tetrazol-5-yl)benzamide]	26 mg/kg
CC(=O)c1cc(F)cc(C(=O)Nc2nnn[nH]2)c1O [CC, 3-acetyl-5-fluoro-2-hydroxy-N-(tetrazol-5-yl)benzamide]	1.9 mg/kg
O=C(Nc1nnn[nH]1)c1cc(C(F)(F)F)ccc1O [Compound BV, 5-trifluoromethyl-2-hydroxy-N-(tetrazol-5-yl)benzamide]	37 mg/kg
